# “Also recorded” adds a separate entry of the source.
# Legend:
# AtCCD7 = molecular target: T1, AtCCD7 (Arabidopsis thaliana, UniProt Q7XJM2); test: In vivo enzyme assay in β-carotene-producing E. coli expressing AtCCD7; format: cell-based; settings: 100 μM inhibitor, 16 hours; FIG. 4
# T1 construct: expressed in transfected cells; host or cells: E. coli BL21(DE3) harbouring pAC-BETA
# T1 sequence (Q7XJM2 32-618): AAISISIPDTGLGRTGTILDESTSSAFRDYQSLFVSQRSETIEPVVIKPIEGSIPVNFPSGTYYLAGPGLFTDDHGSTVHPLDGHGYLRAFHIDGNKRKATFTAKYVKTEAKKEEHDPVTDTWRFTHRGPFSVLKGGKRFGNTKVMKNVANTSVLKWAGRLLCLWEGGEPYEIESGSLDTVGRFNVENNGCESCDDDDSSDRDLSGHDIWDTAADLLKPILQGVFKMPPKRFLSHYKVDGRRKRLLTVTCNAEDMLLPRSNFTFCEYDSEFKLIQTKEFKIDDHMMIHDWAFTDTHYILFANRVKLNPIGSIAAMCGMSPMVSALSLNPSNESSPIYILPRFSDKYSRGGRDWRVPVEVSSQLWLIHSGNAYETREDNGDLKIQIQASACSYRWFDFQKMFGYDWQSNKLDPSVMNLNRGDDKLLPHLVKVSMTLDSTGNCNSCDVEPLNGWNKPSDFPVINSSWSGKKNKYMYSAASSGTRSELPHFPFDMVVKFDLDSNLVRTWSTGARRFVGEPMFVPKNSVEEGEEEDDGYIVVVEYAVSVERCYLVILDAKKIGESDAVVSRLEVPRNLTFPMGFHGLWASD
# Text: (§1) In vivo enzyme assays in E. coli—The genes of interest (supplemental Table S1) were cloned into the vector pET30c (Novagen) fused directly to the initial ATG codon with no tag, or into pGEX-4T such that the gene was fused to an N-terminal GST tag. All genes were full length except AtCCD7, which had the chloroplast signal sequence removed (supplemental methods). […] Therefore, this construct was used in subsequent assays. The plasmids were transferred to the E. coli expression strain BL21(DE3), harbouring pAC-BETA (38), and therefore producing β-carotene.
# For each inhibitor assay, 2.5 ml LB media with the appropriate antibiotics (25 μg ml^−1 chloramphenicol and 50 μg ml^−1 kanamycin or 100 μg ml^−1 ampicillin) and 2.5 μM IPTG, was prepared. Inhibitors (0.1 M in 100% ethanol) were added to the media to a final concentration of 100 μM. The media was then inoculated with 0.25 ml of overnight culture (grown at 37° C. with the appropriate antibiotics) and incubated with shaking (200 rpm) at 28° C. for 16 hours. One ml of culture was harvested by microcentrifugation and resuspended thoroughly in 1 ml ethanol containing 0.2% Triton X-100. […] The supernatant was removed and the O.D.453-O.D.550 was measured. The amount of β-carotene was calculated using a standard curve generated from a dilution series of β-carotene (Sigma) in ethanol with 0.2% Triton X-100; the absolute levels of β-carotene are shown in FIG. 8. The relative inhibition was calculated by the equation: (Ci−Cc)/(C1−Cc)×100, where Ci is the carotenoid level with inhibitor and CCD present, Cc is the level with CCD but without the inhibitor and C1 is the level in a strain where lacZ is expressed instead of the CCD, and no inhibitor is present. […]
# In vivo activity of inhibitors applied to E. coli strains expressing CCDs—Coloured E. coli strains that produce various carotenoids can be constructed by expression of enzymes for carotenoid synthesis (26). […] The difference in the carotenoid levels gave a measure of CCD activity, and inhibition of this activity was measured by addition of inhibitors to the growing medium. […]
# LeCCD1a = test: In vivo enzyme assay in β-carotene-producing E. coli expressing LeCCD1a; format: cell-based, Solanum lycopersicum; settings: 100 μM inhibitor, 16 hours; FIG. 4
# Text: as §1
# For each inhibitor assay, 2.5 ml LB media with the appropriate antibiotics (25 μg ml^−1 chloramphenicol and 50 μg ml^−1 kanamycin or 100 μg ml^−1 ampicillin) and 2.5 μM IPTG, was prepared. Inhibitors (0.1 M in 100% ethanol) were added to the media to a final concentration of 100 μM. The media was then inoculated with 0.25 ml of overnight culture (grown at 37° C. with the appropriate antibiotics) and incubated with shaking (200 rpm) at 28° C. for 16 hours. One ml of culture was harvested by microcentrifugation and resuspended thoroughly in 1 ml ethanol containing 0.2% Triton X-100. After vortexing, the extract was incubated at room temperature in the dark for 3 hours, again vortexed and then spun in a microcentrifuge for 5 min at 13000 rpm. The supernatant was removed and the O.D.453-O.D.550 was measured. The amount of β-carotene was calculated using a standard curve generated from a dilution series of β-carotene (Sigma) in ethanol with 0.2% Triton X-100; the absolute levels of β-carotene are shown in FIG. 8. The relative inhibition was calculated by the equation: (Ci−Cc)/(C1−Cc)×100, where Ci is the carotenoid level with inhibitor and CCD present, Cc is the level with CCD but without the inhibitor and C1 is the level in a strain where lacZ is expressed instead of the CCD, and no inhibitor is present. Thus the increase in β-carotene due to inhibition of the CCD […] was expressed relative to the maximum possible β-carotene content when CCD is absent (C1−Cc).
# In vivo activity of inhibitors applied to E. coli strains expressing CCDs—Coloured E. coli strains that produce various carotenoids can be constructed by expression of enzymes for carotenoid synthesis (26). Upon co-expression of the appropriate CCD, the bacteria lose their colour due to cleavage of the carotenoids to colourless products (4,6,27). This technique was employed here to further explore the specificity of inhibitors, and to test their activity in vivo. The level of carotenoid in each CCD-expressing strain was compared to the level of the carotenoid in a control strain producing β-carotene but lacking any CCD gene. The difference in the carotenoid levels gave a measure of CCD activity, and inhibition of this activity was measured by addition of inhibitors to the growing medium.
# The inhibitors were tested against four β-carotene-producing E. coli strains (supplemental Table S1). Three of the strains expressed highly divergent CCDs that cleave at the 9,10 position: AtCCD7 from Arabidopsis (21) and MmBCO2 from mouse (6) which both cleave at a single site (9,10 or 9′,10′ but not both), and the tomato enzyme LeCCD1a (44) which cleaves at both sites in the same substrate molecule (9,10/9′,10′ activity). The fourth strain expressed another mouse CCD, MmBCO1 (47), which cleaves centrally at 15,15′. […]
# whole Arabidopsis plants = test: Shoot branching in whole Arabidopsis plants grown in agar; format: in vivo; settings: applied to whole plants
# Description: Branching phenotypes of Arabidopsis plants grown in agar media for 45 days supplemented with inhibitor D6. Images are shown: (a) Col-0 (WT) without inhibitor; (b) max3-9 mutant without inhibitor; (c) Col-0 with 100 μM D6. The numbers (d) of rosette branches were quantified. Error bars represent standard error of the mean, n=6 to 12.
# Stimulation of shoot branching in whole Arabidopsis plants—Inhibitors were also applied to Arabidopsis whole plants grown under sterile conditions in agar. […] Inhibitor treated plants were intermediate (mean of approximately 2 branches) and so partially mimicked max3-9 (FIG. 6d).
Structure (SMILES),relative inhibition of AtCCD7 in E. coli (in words) (AtCCD7),relative inhibition of LeCCD1a in E. coli (in words) (LeCCD1a),unintended effects on whole Arabidopsis plants (whole Arabidopsis plants)
"COc1ccc(C(=O)N(O)Cc2ccccc2)cc1 [Compound F1, N-benzyl-4-methoxybenzoyl hydroxamic acid]",poor inhibition; also recorded: relatively small activity; also recorded: relatively ineffective against AtCCD7; also recorded: poor inhibitors against AtCCD7,good activity against LeCCD1a; also recorded: high inhibitory activity,caused bleaching of leaves
"COc1ccc(C(=O)N(O)Cc2ccc(F)cc2)cc1 [Compound F2, N-(4-fluorobenzyl)-4-methoxybenzoyl hydroxamic acid]",poor inhibition; also recorded: relatively small activity; also recorded: relatively ineffective against AtCCD7; also recorded: poor inhibitors against AtCCD7,good activity against LeCCD1a; also recorded: high inhibitory activity,caused bleaching of leaves
"COc1ccc(C(=O)N(O)Cc2ccccc2)cc1OC [Compound F3, N-benzyl-3,4-dimethoxybenzoyl hydroxamic acid]",inactive,virtually none,
